Values after ≈ are worked out from the molar mass of the structure shown. Read-outs that look alike come from different tables or passages of the source.
Tests used:
[1] = test system: colon cancer cells HCT116; experiment: Annexin V/PI flow cytometry apoptosis; format: cell-based; details: HCT116, 48 h
Method: (§1) HCT116 and Hela cells in the logarithmic phase were harvested, digested with 0.25% trypsin, and seeded into a 6-well cell culture plate at a density of 1×10^5 cells per petri dish. The cells were cultured at 37° C. and 5% CO2 in an incubator overnight. After the cell adhesion was observed, the culture medium was replaced, and the dishes were respectively added with different concentrations of spinosin-Na. At the same time, a blank control was set, and each concentration treatment was performed in triplicate. The cells were continuously cultured in the incubator under the same conditions for 48 h. After that, the adherent cells were digested with 0.25% trypsin followed by centrifugation at 1,000 rpm for 5 min. The supernatant was discarded, and the cells were washed twice with PBS. The cells were suspended with 200 μL of a mixture of Annexin V and Binding buffer and reacted at 4° C. in the dark for 30 min. 300 μL of a mixed solution of PI and Binding buffer was added to each sample 5 min before the test. The double-stained cells were detected by flow cytometry to identify normal cells, early apoptotic cells, late apoptotic cells and necrotic cells, determining the apoptosis rate. […]

[2] = test system: cervical cancer cells Hela; experiment: Annexin V/PI flow cytometry apoptosis; format: cell-based; details: 48 h
Method: as §1

Water solubility = format: physicochemical
breast cancer cell MCF-7 = experiment: MTT assay, tumor cell proliferation; format: cell-based; details: 48 h
Method: (§2) Colon cancer cell line HCT116, cervical cancer cell line Hela, breast cancer cell MCF-7, liver cancer cell HepG2 and normal colonic epithelial cell line FHC in the logarithmic phase were harvested and respectively made into a suspension. After counted, the suspensions were adjusted to 6000 cells/100 μL, and then 100 μL, of respective suspensions were seeded into a 96-well plate, and cultured at 37° C. and 5% CO2 overnight. After that, the culture medium was discarded, and the wells were respectively added with culture mediums containing different concentrations of spinosin-Na, such that final concentrations of the spinosin-Na were respectively 50, 100, 150, 200 and 250 μg/mL. 5 parallel wells were set for each concentration treatment. The cells were continuously cultured in the incubator for 48 h. After that, the culture medium was discarded, and the cells were washed twice with PBS, added with 20 μL of 5.0 mg/mL MTT and continuously cultured for 4 h. The culture medium was discarded, and respective wells were added with 150 μL of DMSO to dissolve formazan crystals produced by living cells. The plate was shaken on a shaker for 10 min, and then transferred to a microplate reader for the measurement of absorbance at 570 nm.
(§3) The antitumor activity of different concentrations of spinosin (100, 200, 300, 400, 500 μg/mL) was measured by the same method described above.

liver cancer cell HepG2 = experiment: MTT assay, tumor cell proliferation; format: cell-based; details: 48 h
Method: as §2, §3

[3] = test system: Colon cancer cell line HCT116; experiment: MTT assay, tumor cell proliferation; format: cell-based; details: 48 h; for IC50: HCT-116, MTT
Method: as §2, §3

[4] = test system: cervical cancer cell line Hela; experiment: MTT assay, tumor cell proliferation; format: cell-based; details: 48 h; for IC50: MTT
Method: as §2, §3

[5] = test system: normal colonic epithelial cell line FHC; experiment: MTT assay, normal cell proliferation; format: cell-based; details: 50-250 μg/mL, 48 h
Method: as §2, §3

[6] = spinosin prepared by the existing methods; cited from earlier work

Row | water solubility (Water solubility) | IC50 (breast cancer cell MCF-7; MCF7, MTT) | IC50 (liver cancer cell HepG2; HepG2, MTT) | IC50 [3] | IC50 [4] | Compound | apoptosis of tumor cells [1] | apoptosis of tumor cells [2] | proliferation of tumor cells (breast cancer cell MCF-7; MCF-7, 50-250 μg/mL) | proliferation of tumor cells (liver cancer cell HepG2; HepG2, 50-250 μg/mL) | proliferation of tumor cells ([3]; HCT116, 50-250 μg/mL) | proliferation of tumor cells ([4]; 50-250 μg/mL) | effect on proliferation of normal cells [5] | water solubility [6]
1 | good water solubility | 291.79 ± 10.49 µg/mL | 444.08 ± 15.21 µg/mL | 147.20 ± 4.65 µg/mL | 178.41 ± 6.83 µg/mL | spinosin-Na | significantly induce the apoptosis | significantly induce the apoptosis | significantly inhibit the proliferation | significantly inhibit the proliferation | significantly inhibit the proliferation | significantly inhibit the proliferation | no significant effect | –
2 | – | – | – | 732.71 ± 18.97 µg/mL (≈ 1200 µM) | 687.60 ± 2132 µg/mL (≈ 1130 µM) | COc1cc2oc(-c3ccc(O)cc3)cc(=O)c2c(O)c1[C@@H]1O[C@H](CO)[C@@H](O)[C@H](O)[C@H]1O[C@@H]1O[C@H](CO)[C@@H](O)[C@H](O)[C@H]1O [Spinosin, spinosin] | – | – | – | – | – | – | – | poor water-solubility
